Source: paper PMC6328172, “5-HT2 receptor binding, functional activity and selectivity in N-benzyltryptamines” (PLoS ONE, 2019)
“And” between values parts separate entries of the source, which are not always exact repeats. Equal entries are not always repeated. Structures can show the parent of a compound that is named as a salt. Where two headings read alike, the source gives them in different places.

Experiments:
human 5-HT2A receptor [1] = target: T1, human 5-HT2A receptor (Homo sapiens, UniProt P28223); experiment: Competition binding to the human 5-HT2A receptor ([3H]ketanserin, CHO-5-HT2A membranes); details: for Selectivity 5-HT2A/2C (binding): from Ki values, Table 1; for Ki: human receptor, [3H]ketanserin displacement
T1 construct: expressed in transfected cells; host or cells: CHO (CHO-5-HT2A cell line)

human 5-HT2C receptor [2] = target: T2, human 5-HT2C receptor (Homo sapiens, UniProt P28335); experiment: Competition binding to the human 5-HT2C receptor ([3H]mesulergine, HeLa-5-HT2C membranes); details: for Selectivity 5-HT2C/2A (binding, in parentheses): from Ki values, Table 1; for Ki: human receptor, [3H]mesulergine displacement, no unit in the table, nM, read-out: 5-HT2C Ki (in parentheses) (converted)
T2 construct: expressed in transfected cells; host or cells: HeLa (HeLa-5-HT2C cell line)
T2 sequence (P28335 33-458): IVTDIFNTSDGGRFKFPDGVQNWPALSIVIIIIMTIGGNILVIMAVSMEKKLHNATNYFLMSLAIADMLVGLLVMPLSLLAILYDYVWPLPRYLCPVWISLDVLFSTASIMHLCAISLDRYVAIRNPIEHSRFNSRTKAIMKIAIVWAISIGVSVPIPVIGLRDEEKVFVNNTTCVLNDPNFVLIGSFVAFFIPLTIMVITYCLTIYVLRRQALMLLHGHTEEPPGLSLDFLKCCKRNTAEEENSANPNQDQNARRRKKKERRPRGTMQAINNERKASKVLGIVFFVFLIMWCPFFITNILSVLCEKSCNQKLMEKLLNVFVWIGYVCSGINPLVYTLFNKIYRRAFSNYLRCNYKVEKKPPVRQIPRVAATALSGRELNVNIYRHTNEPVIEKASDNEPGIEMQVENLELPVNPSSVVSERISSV

human 5-HT2A receptor [3] = target: T1, human 5-HT2A receptor; experiment: Ca2+ mobilization in CHO h5-HT2A cells; type: cell-based; details: for EC50: Ca2+ mobilization; for Selectivity 5-HT2A/2C (functional): from EC50 values, Table 2; for Emax: relative efficacy, % of response to 5-HT
human 5-HT2C receptor [4] = target: T2, human 5-HT2C receptor; experiment: Ca2+ mobilization in HeLa h5-HT2C cells; type: cell-based
human 5-HT2B receptor = human 5-HT2B receptor (Homo sapiens, UniProt P41595); experiment: Competition binding to the human 5-HT2B receptor ([3H]LSD, CHO-5-HT2B membranes)
[5] = no unit in the table, nM, read-out: 5-HT2A Ki (in parentheses) (converted)
[6] = no unit in the table, nM, read-out: 5-HT2A EC50 (in parentheses) (converted)
[7] = Ca2+ mobilization; no unit in the table, nM; read-out: 5-HT2C EC50 (in parentheses) (converted)
[8] = pEC50 ± SEM, read-out: 5-HT2A pEC50 (converted)

T1 sequence (P28223 whole entry): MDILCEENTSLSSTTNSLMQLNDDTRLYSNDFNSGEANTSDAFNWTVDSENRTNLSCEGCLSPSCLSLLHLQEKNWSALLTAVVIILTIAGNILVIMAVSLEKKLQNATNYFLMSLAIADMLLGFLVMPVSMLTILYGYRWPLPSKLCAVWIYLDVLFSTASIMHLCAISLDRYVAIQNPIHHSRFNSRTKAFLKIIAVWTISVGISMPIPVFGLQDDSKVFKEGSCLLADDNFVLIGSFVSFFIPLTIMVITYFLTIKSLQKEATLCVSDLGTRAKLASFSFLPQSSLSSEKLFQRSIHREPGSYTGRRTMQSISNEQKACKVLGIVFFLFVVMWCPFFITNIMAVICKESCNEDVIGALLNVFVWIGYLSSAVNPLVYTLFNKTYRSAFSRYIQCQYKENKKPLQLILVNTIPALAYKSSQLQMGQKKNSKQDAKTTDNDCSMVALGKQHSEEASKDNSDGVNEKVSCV
Sequence of human 5-HT2B receptor (P41595 whole entry): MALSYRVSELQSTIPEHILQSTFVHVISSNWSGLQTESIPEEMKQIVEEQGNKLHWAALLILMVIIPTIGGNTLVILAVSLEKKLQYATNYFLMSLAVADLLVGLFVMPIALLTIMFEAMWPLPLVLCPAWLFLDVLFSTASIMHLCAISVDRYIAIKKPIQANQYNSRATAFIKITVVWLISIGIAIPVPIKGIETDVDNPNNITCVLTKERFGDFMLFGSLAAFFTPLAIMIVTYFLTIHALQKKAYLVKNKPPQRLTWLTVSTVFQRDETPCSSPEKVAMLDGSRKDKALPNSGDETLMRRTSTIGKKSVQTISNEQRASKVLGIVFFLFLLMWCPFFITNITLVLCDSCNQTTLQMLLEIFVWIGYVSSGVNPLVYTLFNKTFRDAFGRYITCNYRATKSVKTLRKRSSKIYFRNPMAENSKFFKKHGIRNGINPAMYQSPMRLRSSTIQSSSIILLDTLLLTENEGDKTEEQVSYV

| Structure (SMILES) | melting point [°C] | Selectivity 5-HT2A/2C (binding) (human 5-HT2A receptor [1]) | Ki (human 5-HT2A receptor [1]; [5]) [nM] | Ki (human 5-HT2A receptor [1]; read-out: 5-HT2A pKi ± S.E.M. (converted)) [nM] | Selectivity 5-HT2C/2A (binding, in parentheses) (human 5-HT2C receptor [2]) | Ki (human 5-HT2C receptor [2]) [nM] | EC50 (human 5-HT2A receptor [3]; [6]) | Selectivity 5-HT2A/2C (functional) (human 5-HT2A receptor [3]) | Emax (human 5-HT2A receptor [3]) [%] | EC50 (human 5-HT2C receptor [4]; [7]) [nM] | Emax (human 5-HT2C receptor [4]; HeLa; read-out: 5-HT2C % Emax) [%] | Selectivity 5-HT2C/2A (functional, in parentheses) (human 5-HT2C receptor [4]; from EC50 values, Table 2) | Ki (human 5-HT2B receptor) [nM] | EC50 (human 5-HT2A receptor [3]; [8]) [nM] | Emax (human 5-HT2C receptor [4]; HeLa, read-out: 5-HT2C % Emax) [%] |
| --- | --- | --- | --- | --- | --- | --- | --- | --- | --- | --- | --- | --- | --- | --- | --- |
| Oc1cccc(CNCCc2c[nH]c3ccccc23)c1 (as salt: fumarate) [Compound 7, N-(3-Hydroxybenzyl)-[2-(1H-indol-3-yl)ethyl]amine] | 206 to 207 |  |  |  |  |  |  |  |  |  |  |  |  |  |  |
| Cc1ccc(O)c(CNCCc2c[nH]c3ccccc23)c1 (as salt: fumarate) [Compound 23, N-(2-Hydroxy-5-methylbenzyl)-[2-(1H-indol-3-yl)ethyl]amine] | 183 to 185 |  |  |  |  |  |  |  |  |  |  |  |  |  |  |
| COc1ccc(O)c(CNCCc2c[nH]c3ccc(OC)cc23)c1 (as salt: fumarate) [Compound 42, N-(2-Hydroxy-5-methoxybenzyl)-[2-(5-methoxy-1H-indol-3-yl)ethyl]amine] | 196 to 197 |  |  |  |  |  |  |  |  |  |  |  |  |  |  |
| COc1ccc2[nH]cc(CCNCc3cc(F)ccc3O)c2c1 (as salt: fumarate) [Compound 43, N-(5-Fluoro-2-hydroxybenzyl)-[2-(5-methoxy-1H-indol-3-yl)ethyl]amine] | 200 to 201 |  |  |  |  |  |  |  |  |  |  |  |  |  |  |
| Oc1ccc(F)cc1CNCCc1c[nH]c2ccccc12 [Compound 24, N-(5-Fluoro-2-hydroxybenzyl)-[2-(1H-indol-3-yl)ethyl]amine] |  | 0.14 | 759 | 794 | 7.15 | 105 | 75.9 nM | 0.35 | 71.6 ± 1.95 | 26.3 | 105 ± 2.19 | 2.88 | 77.6 |  |  |
| COc1ccc(F)cc1CNCCc1c[nH]c2ccccc12 [Compound 25, N-(5-Fluoro-2-methoxybenzyl)-[2-(1H-indol-3-yl)ethyl]amine] |  | 0.42 | 363 |  | 2.40 | 151 | 60.3 nM | 0.87 | 58 ± 1.95 | 52.5 | 110 ± 2.19 | 1.15 | 95.5 |  |  |
| COc1ccc(Br)cc1CNCCc1c[nH]c2ccccc12 [Compound 27, N-(5-Bromo-2-methoxybenzyl)-[2-(1H-indol-3-yl)ethyl]amine] |  | 0.12 | 1120 |  | 8.22 | 135 | 17800 nM | 0.015 | 69 ± 3.51 | 263 | 111 ± 4.63 | 67.6 | 91.2 | 17800 |  |
| COc1ccc(Cl)cc1CNCCc1c[nH]c2ccccc12 [Compound 28, N-(5-Chloro-2-methoxybenzyl)-[2-(1H-indol-3-yl)ethyl]amine] |  | 1.35 | 977 |  | 0.74 | 1320 | 8910 nM | 0.027 | 69.2 ± 2.67 | 240 | 110 ± 3.35 | 37.2 | 794 | 8910 |  |
| COc1ccc(OC)c(CNCCc2c[nH]c3ccccc23)c1 [Compound 29, N-(2,5-Dimethoxybenzyl)-[2-(1H-indol-3-yl)ethyl]amine] |  | 0.26 | 331 |  | 3.85 | 87.1 | 3470 nM | 0.038 | 39 ± 0.67 | 132 | 118 ± 4.45 | 26.3 | 57.5 |  |  |
| Oc1cc(Br)ccc1CNCCc1c[nH]c2ccccc12 [Compound 31, N-(4-Bromo-2-hydroxybenzyl)-[2-(1H-indol-3-yl)ethyl]amine] |  | 0.38 | 1550 |  | 2.63 | 603 | 24500 nM | 0.033 | 62.5 ± 10.8 | 813 | 74.8 ± 2.6 | 30.2 | 110 |  |  |
| Oc1cccc(Br)c1CNCCc1c[nH]c2ccccc12 [Compound 33, N-(6-Bromo-2-hydroxybenzyl)-[2-(1H-indol-3-yl)ethyl]amine] |  | 0.067 | 1660 |  | 15 | 112 | 5890 nM | 0.13 | 34.4 ± 1.37 | 794 | 104 ± 2.91 | 7.41 | 69.2 |  |  |
| Oc1cccc(F)c1CNCCc1c[nH]c2ccccc12 [Compound 34, N-(6-Fluoro-2-hydroxybenzyl)-[2-(1H-indol-3-yl)ethyl]amine] |  |  | 229 |  |  | 155 | 39.8 nM | 0.47 | 49.3 ± 3.23 | 18.6 | 91.7 ± 6.6 | 2.13 | 115 |  |  |
| COc1ccc(CNCCc2c[nH]c3ccccc23)cc1OC [Compound 36, N-(3,4-Dimethoxybenzyl)-[2-(1H-indol-3-yl)ethyl]amine] |  | 0.92 | 1290 |  | 1.09 | 1200 | 2240 nM | 0.026 | 50.5 ± 8.27 | 57.5 | 100 ± 2.85 | 38.9 | 288 |  |  |
| COc1ccc2[nH]cc(CCNCc3ccccc3)c2c1 [Compound 37, N-Benzyl-[2-(5-methoxy-1H-indol-3-yl)ethyl]amine] |  | 2.93 | 33.1 |  | 0.34 | 95.5 | 20.4 nM | 0.71 | 63.2 ± 1.44 | 14.4 | 113 ± 3.47 | 1.41 | 16.6 |  |  |
| COc1ccc2[nH]cc(CCNCc3ccccc3Cl)c2c1 [Compound 39, N-(2-Chlorobenzyl)-[2-(5-methoxy-1H-indol-3-yl)ethyl]amine] |  | 5.51 | 13.5 |  | 0.18 | 74.1 | 12 nM | 6.76 | 47.7 ± 1.57 | 81.3 | 106 ± 4.32 | 0.15 | 37.1 |  |  |
| COc1ccc2[nH]cc(CCNCc3ccccc3Br)c2c1 [Compound 40, N-(2-Bromobenzyl)-[2-(5-methoxy-1H-indol-3-yl)ethyl]amine] |  | 5.66 | 12.3 |  | 0.18 | 70.8 | 29.5 nM | 0.93 | 44.8 ± 0.99 | 27.5 | 105 ± 4.32 | 1.07 | 28.8 |  |  |
| COc1ccc2[nH]cc(CCNCc3ccc(Br)cc3)c2c1 [Compound 41, N-(4-Bromobenzyl)-[2-(5-methoxy-1H-indol-3-yl)ethyl]amine] |  | 0.98 | 389 |  | 1.02 | 380 | 1860 nM | 0.071 | 60.5 ± 2.41 | 132 | 93.5 ± 3.05 | 14.1 | 155 |  |  |
| COc1ccc(O)c(CNCCc2c[nH]c3ccc(OC)cc23)c1 [Compound 42, N-(2-Hydroxy-5-methoxybenzyl)-[2-(5-methoxy-1H-indol-3-yl)ethyl]amine] |  | 0.30 | 135 |  | 3.31 | 40.7 |  | 0.91 | 43.6 ± 0.9 |  |  | 1.1 | 20.4 |  | 89.4 ± 3.86 |
| COc1ccc2[nH]cc(CCNCc3cc(F)ccc3O)c2c1 [Compound 43, N-(5-Fluoro-2-hydroxybenzyl)-[2-(5-methoxy-1H-indol-3-yl)ethyl]amine] |  | 9.66 | 3.98 |  | 0.10 | 39.8 | 1.4 nM and 1.38 nM | 2.63 | 83.3 ± 2.26 | 3.63 | 106 ± 3.05 | 0.38 | 8.91 |  |  |
